Where two headings read alike, the source gives them in different places. Starred links: 1 amine or outer side, 2 acyl side, 3 side chain; linkers in the order of their positions; H or OH if unused. Positions of bridges follow the written chain, without caps; N, C: chain ends. Non-standard residues stand in square brackets, D forms with d. Residues, ends and D or L forms follow the SMILES beside them. *: point of attachment. Bip(4'-(3-HOOC-benzamido)) = N[C@@H](Cc1ccc(-c2ccc(NC(=O)c3cccc(C(=O)O)c3)cc2)cc1)C(=O)O; dArg(Nω-CH2C6H4-3-CH2Gua) = N=C(N)NCc1cccc(CNC(=N)NCCC[C@@H](N)C(=O)O)c1; Bip(4'-NH) = O=C([C@H](Cc1ccc(-c2ccc(N[*:3])cc2)cc1)N[*:1])[*:2]; Bip(4'-CONHMe) = CNC(=O)c1ccc(-c2ccc(C[C@H](N)C(=O)O)cc2)cc1; Indazole3carbonyl(1-CH2COOH) = O=C(O)Cn1nc(C(=O)*)c2ccccc21; Bip(4'-COOH) = N[C@@H](Cc1ccc(-c2ccc(C(=O)O)cc2)cc1)C(=O)O; Bip(4'-NHAc) = CC(=O)Nc1ccc(-c2ccc(C[C@H](N)C(=O)O)cc2)cc1; X23 = N=C(N)Nc1ccc(CNC(=N)NCCC[C@@H](N[*:1])C(=O)[*:2])cc1; X68 = N=C(NCCC[C@@H](N[*:1])C(=O)[*:2])NCc1ccc(O)c(O)c1; Ala(morpholin-4-yl) = N[C@@H](CN1CCOCC1)C(=O)O; Benzoyl(4-OCH2COOH) = O=C(O)COc1ccc(C(=O)*)cc1; Phe(3-CONH2) = NC(=O)c1cccc(C[C@H](N)C(=O)O)c1; Bip = N[C@@H](Cc1ccc(-c2ccccc2)cc1)C(=O)O; X24 = O=C(O)COc1cc(-c2ccccc2)ccc1C(=O)*; Phe(4-Me) = Cc1ccc(C[C@H](N)C(=O)O)cc1; Hyp = O=C(O)[C@@H]1C[C@@H](O)CN1; 4Pal = N[C@@H](Cc1ccncc1)C(=O)O; Tic = O=C(O)[C@@H]1Cc2ccccc2CN1; Cha = N[C@@H](CC1CCCCC1)C(=O)O; Tle = CC(C)(C)[C@H](N)C(=O)O; Sar = CNCC(=O)O
Biological target: TNFα (Homo sapiens, UniProt P01375)
Sequence (P01375 77-233 limits assumed): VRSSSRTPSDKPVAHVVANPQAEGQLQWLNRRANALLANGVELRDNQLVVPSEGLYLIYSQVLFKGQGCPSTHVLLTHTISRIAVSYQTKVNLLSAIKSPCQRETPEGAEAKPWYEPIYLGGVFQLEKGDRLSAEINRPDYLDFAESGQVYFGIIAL
Assay: TNF-Induced HEK-Blue Assay
Type: cell-based
[1] = HEK-Blue-CD40L cells, NF-kB-driven secreted alkaline phosphatase reporter, TNFα 0.5 ng/ml, 18 h, read-out: TNF induced HEK-Blue assay IC50 value

| Structure (SMILES) | IC50 [1] | IC50 |
| --- | --- | --- |
| CC(C)C[C@@H]1NC(=O)[C@H](CCCNC(=N)N)NC(=O)[C@H](C(C)C)NC(=O)[C@@H]2CCCN2C(=O)[C@H](C(C)C)NC(=O)[C@@H](CCCNC(=N)NCc2ccc(NC(=N)N)cc2)NC(=O)[C@H](CC(=O)O)NC(=O)[C@@H]2CCCN2C(=O)CN(C)C(=O)[C@H](Cc2ccc(-c3ccc(NC(=O)c4nn(CC(=O)O)c5ccccc45)cc3)cc2)NC(=O)[C@H](Cc2ccc(-c3ccccc3)cc2)NC(=O)[C@H](CN2CCOCC2)NC(=O)CSC[C@@H](C(=O)NCC(N)=O)NC1=O [Example 432] ({CH2CO}-[Ala(morpholin-4-yl)][Bip][Bip(4'-NH)](Indazole3carbonyl(1-CH2COOH))[Sar]PD[X23]VPVRLCG-NH2; thioether N-13) | – | 0.05 to 0.2 µM |
| CC(C)C[C@@H]1NC(=O)[C@H](CCCNC(=N)N)NC(=O)[C@H](C(C)C)NC(=O)[C@@H]2C[C@@H](O)CN2C(=O)[C@H](C(C)C)NC(=O)[C@H](CCCNC(=N)N)NC(=O)[C@H](CC(=O)O)NC(=O)[C@@H]2CCCN2C(=O)CN(C)C(=O)[C@H](Cc2ccc(-c3ccccc3)cc2)NC(=O)[C@H](Cc2ccc(-c3ccccc3)cc2)NC(=O)[C@H](Cc2ccccc2)NC(=O)CSC[C@@H](C(=O)NCC(N)=O)NC1=O [Example 39] ({CH2CO}-F[Bip][Bip][Sar]PDRV[Hyp]VRLCG-NH2; thioether N-13) | 0.2 to 2 µM | – |
| CC(C)C[C@@H]1NC(=O)[C@H](Cc2ccc(O)cc2)NC(=O)[C@H](C(C)C)NC(=O)[C@@H]2CCCN2C(=O)[C@H](C(C)C)NC(=O)[C@@H](CCCNC(=N)N)NC(=O)[C@H](CC(=O)O)NC(=O)[C@H](Cc2ccc(O)cc2)NC(=O)CN(C)C(=O)[C@H](Cc2ccc(-c3ccccc3)cc2)NC(=O)[C@H](Cc2ccc(-c3ccccc3)cc2)NC(=O)[C@H](Cc2ccccc2)NC(=O)CSC[C@@H](C(=O)NCC(N)=O)NC1=O [Example 62] ({CH2CO}-F[Bip][Bip][Sar]YD[dR]VPVYLCG-NH2; thioether N-13) | 0.05 to 0.2 µM | – |
| CC(C)C[C@@H]1NC(=O)[C@H](CCCNC(=N)N)NC(=O)[C@H](C(C)C)NC(=O)[C@@H]2CCCN2C(=O)[C@H](C(C)C)NC(=O)[C@@H](CCCNC(=N)NCc2ccc(O)c(O)c2)NC(=O)[C@H](CC(=O)O)NC(=O)[C@@H]2CCCN2C(=O)CN(C)C(=O)[C@H](Cc2ccc(-c3ccc(NC(=O)c4nn(CC(=O)O)c5ccccc45)cc3)cc2)NC(=O)[C@H](Cc2ccc(-c3ccccc3)cc2)NC(=O)[C@H](CN2CCOCC2)NC(=O)CSC[C@@H](C(=O)NCC(N)=O)NC1=O [Example 635] ({CH2CO}-[Ala(morpholin-4-yl)][Bip][Bip(4'-NH)](Indazole3carbonyl(1-CH2COOH))[Sar]PD[X68]VPVRLCG-NH2; thioether N-13) | – | < 0.05 µM |
| CC[C@H](C)[C@@H]1NC(=O)[C@@H](CCCNC(=N)N)NC(=O)[C@H](CC(=O)O)NC(=O)[C@H](Cc2cnc[nH]2)NC(=O)CN(C)C(=O)[C@H](Cc2ccc(-c3ccc(NC(=O)c4ccc(-c5ccccc5)cc4OCC(=O)O)cc3)cc2)NC(=O)[C@H](Cc2ccc(-c3ccccc3)cc2)NC(=O)[C@H](CC2CCCCC2)NC(=O)CSC[C@@H](C(=O)NCC(N)=O)NC(=O)[C@H](CC(C)C)NC(=O)[C@H](Cc2cnc[nH]2)NC(=O)[C@H](C(C)C)NC(=O)[C@@H]2CCCN2C1=O [Example 330] ({CH2CO}-[Cha][Bip][Bip(4'-NH)](X24)[Sar]HD[dR]IPVHLCG-NH2; thioether N-13) | 0.05 to 0.2 µM | – |
| CC[C@H](C)[C@@H]1NC(=O)[C@@H](CCCNC(=N)NCc2cccc(CNC(=N)N)c2)NC(=O)[C@H](CC(=O)O)NC(=O)[C@@H]2CCCN2C(=O)CN(C)C(=O)[C@H](Cc2ccc(-c3ccc(NC(=O)c4nn(CC(=O)O)c5ccccc45)cc3)cc2)NC(=O)[C@H](Cc2ccc(-c3ccccc3)cc2)NC(=O)[C@H](CN2CCOCC2)NC(=O)CSC[C@@H](C(=O)NCC(N)=O)NC(=O)[C@H](CC(C)C)NC(=O)[C@H](Cc2cnc[nH]2)NC(=O)[C@H](C(C)C)NC(=O)[C@@H]2CCCN2C1=O [Example 598] ({CH2CO}-[Ala(morpholin-4-yl)][Bip][Bip(4'-NH)](Indazole3carbonyl(1-CH2COOH))[Sar]PD[dArg(Nω-CH2C6H4-3-CH2Gua)]IPVHLCG-NH2; thioether N-13) | – | < 0.05 µM |

More lines, main results first:

| IC50 [1] | Structure (SMILES) | IC50 |
| --- | --- | --- |
| 0.2 to 2 µM | CC(C)C[C@@H]1NC(=O)[C@H](CCCNC(=N)N)NC(=O)[C@H](C(C)C)NC(=O)[C@@H]2CCCN2C(=O)[C@H](Cc2ccc(O)cc2)NC(=O)[C@H](CCCNC(=N)N)NC(=O)[C@H](CC(=O)O)NC(=O)[C@@H]2CCCN2C(=O)CN(C)C(=O)[C@H](Cc2ccc(-c3ccccc3)cc2)NC(=O)[C@H](Cc2ccc(-c3ccc(C(=O)O)cc3)cc2)NC(=O)[C@H](CN2CCOCC2)NC(=O)CSC[C@@H](C(=O)NCC(N)=O)NC1=O [Example 122] ({CH2CO}-[Ala(morpholin-4-yl)][Bip(4'-COOH)][Bip][Sar]PDRYPVRLCG-NH2; thioether N-13) | – |
| 0.05 to 0.2 µM | CC[C@H](C)[C@@H]1NC(=O)[C@@H](CCCNC(=N)N)NC(=O)[C@H](CC(=O)O)NC(=O)[C@@H]2CCCN2C(=O)CN(C)C(=O)[C@H](Cc2ccc(-c3ccc(NC(C)=O)cc3)cc2)NC(=O)[C@H](Cc2ccc(-c3ccc(C(=O)O)cc3)cc2)NC(=O)[C@H](C(C)(C)C)NC(=O)CSC[C@@H](C(=O)NCC(N)=O)NC(=O)[C@H](CC(C)C)NC(=O)[C@H](Cc2ccc(O)cc2)NC(=O)[C@H](C(C)C)NC(=O)[C@@H]2CCCN2C1=O [Example 269] ({CH2CO}-[Tle][Bip(4'-COOH)][Bip(4'-NHAc)][Sar]PD[dR]IPVYLCG-NH2; thioether N-13) | – |
| 0.05 to 0.2 µM | CC(C)C[C@@H]1NC(=O)[C@H](Cc2ccc(O)cc2)NC(=O)[C@H](C(C)C)NC(=O)CN(C)C(=O)[C@H](C(C)C)NC(=O)[C@@H](CCCNC(=N)N)NC(=O)[C@H](CC(=O)O)NC(=O)[C@@H]2CCCN2C(=O)CN(C)C(=O)[C@H](Cc2ccc(-c3ccccc3)cc2)NC(=O)[C@H](Cc2ccc(-c3ccccc3)cc2)NC(=O)[C@H](CN2CCOCC2)NC(=O)CSC[C@@H](C(=O)NCC(N)=O)NC1=O [Example 136] ({CH2CO}-[Ala(morpholin-4-yl)][Bip][Bip][Sar]PD[dR]V[Sar]VYLCG-NH2; thioether N-13) | – |
| 0.05 to 0.2 µM | CC(C)C[C@@H]1NC(=O)[C@H](CCCNC(=N)N)NC(=O)[C@H](C(C)C)NC(=O)[C@@H]2Cc3ccccc3CN2C(=O)[C@H](C(C)C)NC(=O)[C@H](CCCNC(=N)N)NC(=O)[C@H](CC(=O)O)NC(=O)[C@@H]2CCCN2C(=O)CN(C)C(=O)[C@H](Cc2ccc(-c3ccccc3)cc2)NC(=O)[C@H](Cc2ccc(-c3ccccc3)cc2)NC(=O)[C@H](Cc2ccccc2)NC(=O)CSC[C@@H](C(=O)NCC(N)=O)NC1=O [Example 40] ({CH2CO}-F[Bip][Bip][Sar]PDRV[Tic]VRLCG-NH2; thioether N-13) | – |
| < 0.05 µM | CC[C@H](C)[C@@H]1NC(=O)[C@@H](CCCNC(=N)N)NC(=O)[C@H](CC(=O)O)NC(=O)[C@H](Cc2cnc[nH]2)NC(=O)CN(C)C(=O)[C@H](Cc2ccc(-c3ccc(NC(=O)c4cccc(C(=O)O)c4)cc3)cc2)NC(=O)[C@H](Cc2ccc(-c3ccc(C(=O)O)cc3)cc2)NC(=O)[C@H](CC2CCCCC2)NC(=O)CSC[C@@H](C(=O)NCC(N)=O)NC(=O)[C@H](CC(C)C)NC(=O)[C@H](Cc2cnc[nH]2)NC(=O)[C@H](C(C)C)NC(=O)[C@@H]2Cc3ccccc3CN2C1=O [Example 371] ({CH2CO}-[Cha][Bip(4'-COOH)][Bip(4'-(3-HOOC-benzamido))][Sar]HD[dR]I[Tic]VHLCG-NH2; thioether N-13) | – |
| < 0.05 µM | CC[C@H](C)[C@@H]1NC(=O)[C@@H](CCCNC(=N)N)NC(=O)[C@H](CC(=O)O)NC(=O)[C@H](Cc2cnc[nH]2)NC(=O)CN(C)C(=O)[C@H](Cc2ccc(-c3ccc(NC(=O)c4ccc(OCC(=O)O)cc4)cc3)cc2)NC(=O)[C@H](Cc2ccc(-c3ccc(C(=O)NC)cc3)cc2)NC(=O)[C@H](CC2CCCCC2)NC(=O)CSC[C@@H](C(=O)NCC(N)=O)NC(=O)[C@H](CC(C)C)NC(=O)[C@H](Cc2cnc[nH]2)NC(=O)[C@H](C(C)C)NC(=O)[C@@H]2CCCN2C1=O [Example 395] ({CH2CO}-[Cha][Bip(4'-CONHMe)][Bip(4'-NH)](Benzoyl(4-OCH2COOH))[Sar]HD[dR]IPVHLCG-NH2; thioether N-13) | – |
| 0.2 to 2 µM | CC(C)C[C@@H]1NC(=O)[C@H](CCCNC(=N)N)NC(=O)[C@H](C(C)C)NC(=O)[C@@H]2CCCN2C(=O)[C@H](Cc2ccncc2)NC(=O)[C@H](CCCNC(=N)N)NC(=O)[C@H](CC(=O)O)NC(=O)[C@@H]2CCCN2C(=O)CN(C)C(=O)[C@H](Cc2ccc(-c3ccccc3)cc2)NC(=O)[C@H](Cc2ccc(-c3ccccc3)cc2)NC(=O)[C@H](Cc2ccccc2)NC(=O)CSC[C@@H](C(=O)NCC(N)=O)NC1=O [Example 25] ({CH2CO}-F[Bip][Bip][Sar]PDR[4Pal]PVRLCG-NH2; thioether N-13) | – |
| 0.05 to 0.2 µM | Cc1ccc(C[C@@H]2NC(=O)[C@H](C(C)C)NC(=O)[C@@H]3CCCN3C(=O)[C@H](C(C)C)NC(=O)[C@@H](CCCNC(=N)N)NC(=O)[C@H](CC(=O)O)NC(=O)[C@H](Cc3ccc(O)cc3)NC(=O)CN(C)C(=O)[C@H](Cc3ccc(-c4ccccc4)cc3)NC(=O)[C@H](Cc3ccc(-c4ccccc4)cc3)NC(=O)[C@H](CN3CCOCC3)NC(=O)CSC[C@@H](C(=O)NCC(N)=O)NC(=O)[C@H](CC(C)C)NC2=O)cc1 [Example 152] ({CH2CO}-[Ala(morpholin-4-yl)][Bip][Bip][Sar]YD[dR]VPV[Phe(4-Me)]LCG-NH2; thioether N-13) | – |
| 0.05 to 0.2 µM | CC(C)C[C@@H]1NC(=O)[C@H](Cc2cccc(C(N)=O)c2)NC(=O)[C@H](C(C)C)NC(=O)[C@@H]2CCCN2C(=O)[C@H](C(C)C)NC(=O)[C@@H](CCCNC(=N)N)NC(=O)[C@H](CC(=O)O)NC(=O)[C@H](Cc2ccc(O)cc2)NC(=O)CN(C)C(=O)[C@H](Cc2ccc(-c3ccccc3)cc2)NC(=O)[C@H](Cc2ccc(-c3ccccc3)cc2)NC(=O)[C@H](CN2CCOCC2)NC(=O)CSC[C@@H](C(=O)NCC(N)=O)NC1=O [Example 156] ({CH2CO}-[Ala(morpholin-4-yl)][Bip][Bip][Sar]YD[dR]VPV[Phe(3-CONH2)]LCG-NH2; thioether N-13) | – |
